Source: patent US20050037450A1, “Novel targets for lithium therapy” (Duke University, priority 2002, published 2005)

What was measured:
[1] = system: patients; conditions: cited from earlier work
[2] = system: intracellular PAP in wild type yeast; test: Intracellular PAP concentration by GST-PST binding assay, wild type yeast; assay type: cell-based, S. cerevisiae
Method: Yeast were grown in CM/ura^− containing 2% galactose to mid-log phase. The cultures were washed extensively and resuspended in the CM/ura^−/met^− media with the noted inclusions. PAP was measured using the ligand binding assay described in Experimental Procedures. Intracellular PAP concentrations were normalized to the amount of soluble protein extracted from the cultures.
For the assay of intracellular PAP concentrations, appropriate yeast strains were grown in CM/ura^− to mid-log phase (OD600=1.0). The cells were centrifuged and washed extensively in sterile water. The cells were resuspended in CM/ura^−/met^− containing methionine (20 μg/ml), lithium, or chlorate as appropriate. The cultures were incubated with shaking at 30° C. At various time points, 2 ml of culture was removed and centrifuged. The cells were washed with 1 ml of water. 250 μl was centrifuged and resuspended in 200 μl K-lysis buffer. 200 μl of glass beads were added, and the cells were disrupted by vigorous bead beating. The amount of soluble protein in this extract was determined using a Bradford dye-binding assay (BioRad, Hercules, Calif., United States of America) with bovine serum albumin as a standard. The remaining 750 μl of washed cells was spun down and resuspended in 250 μl of 2 N HClO4. This was incubated at 4° C. for 20 min, when 250 μl of 1.8 N KOH, 0.4 N KHCO3 were added to neutralize and precipitate the HClO4. The extract was centrifuged at 4° C. to remove the debris, and the supernatant was lyophilized using a rotary evaporator. The dried extracts were frozen at −80° C. for no more than one week prior to use. Extracts were reconstituted in 100 μL of 200 mM HEPES, pH 7.5 and again centrifuged to remove debris. 5′ [^32P] 3′, 5′ PAP was created as described (Spiegelberg, 1999). The GST-PST assay was performed by mixing 10 μL of standard PAP, treated as above, or 10 μL of sample diluted approximately 1:1000 in K-lysis buffer, with 10 μL of radiolabeled PAP (approximately 10,000 CPM). Eighty microliters of a reaction mix containing 100 mM HEPES, pH 7.0, 5 mM DTT, 0.2 mg/ml BSA, and 1 μg of GST-PST were added to start the binding reaction. The reactions were allowed to equilibrate for at least one hour at room temperature. Following incubation, 20 μl of a 50:50 slurry of glutathione sepharose in K-lysis buffer was added. The tubes were incubated with gentle mixing for 10 min at room temperature. The protein with bound PAP was pulled down by centrifugation for 2 min at room temperature. 80 μl of the supernatant, containing free PAP, was removed to a scintillation vial and 200 μl of K-lysis buffer was added to wash the resin. The tubes were centrifuged again and the 200 μl wash was transferred to the original scintillation vials. Radioactivity was determined by adding 5 ml of […] ECONO2™ scintillation fluid (Fisher Scientific, Hampton, N.H., United States of America) and counted in a liquid scintillation counter. The counts were converted to percent isotope bound, and a standard curve was prepared by plotting percent bound vs. the logarithm of the PAP concentration. […]
The GST-PST binding assay was used to determine relative intracellular PAP concentrations in yeast strains grown under various conditions. The PAP concentration determined in the binding assay was normalized to the total soluble protein in parallel extracts, and background was eliminated by reporting only the signal that was sensitive to in vitro degradation by purified recombinant Hal2p. […]

[3] = target: T1, 1ptase D54A (aspartate to alanine) (Bos taurus, UniProt P21327, D54A); test: Lithium inhibition of 1ptase D54A mutant; assay type: biochemical, bovine
T1 sequence (P21327 1-400 D54A): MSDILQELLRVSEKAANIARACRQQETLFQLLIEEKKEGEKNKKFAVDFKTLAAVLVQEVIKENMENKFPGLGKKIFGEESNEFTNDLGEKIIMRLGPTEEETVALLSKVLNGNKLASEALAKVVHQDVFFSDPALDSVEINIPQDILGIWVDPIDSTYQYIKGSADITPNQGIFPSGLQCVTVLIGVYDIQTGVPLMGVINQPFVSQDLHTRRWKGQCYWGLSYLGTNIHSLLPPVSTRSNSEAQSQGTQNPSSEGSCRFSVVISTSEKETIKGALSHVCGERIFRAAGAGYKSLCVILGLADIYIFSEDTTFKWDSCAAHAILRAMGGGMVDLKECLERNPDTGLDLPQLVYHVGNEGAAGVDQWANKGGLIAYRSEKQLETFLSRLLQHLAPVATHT
From the text: Low concentrations of lithium and high concentrations of normally catalytic magnesium inhibit Impase and 1ptase uncompetitively with respect to substrate. The inhibitory effects of lithium and magnesium are mutually exclusive in Impase, implying that the inhibitory metals bind at the same or overlapping sites (Ganzhorn, 1990). Structural studies of 1ptase offered additional evidence. […] This was interpreted to mean that electron-poor lithium was bound at the second metal binding site, excluding the binding of electron-rich gadolinium, leading to a dearth of electron density at this site. This conclusion was supported by mutagenic data in which a residue that anchors the second metal binding site, Asp-54 (homologous to Impase Asp-47 (FIGS. 1 and 2)), was mutated to alanine.
FIG. 24 summarizes the results of mutagenic and crystallography experiments representing the lithium binding site in 1ptase. […] When 1ptase was crystallized in the presence of metal and lithium, however, the density at metal site 2 disappeared. This is explained by the fact that lithium, having only 2 electrons, is invisible (right panel). Therefore, loss of occupancy at metal site 2 is a result of invisible lithium binding there, excluding the binding of more electron rich metals. […]

[Li] [lithium]
Occurrence of acquired nephrogenic diabetes insipidus (NDI) ([1]; patients taking the drug): 20-50%
Patients reporting clinically significant polyuria ([1]; patients undergoing lithium therapy): Up to 20%
Fold increase of PAP concentration [2]: at least 85.8 fold
Intracellular PAP concentration ([2]; wild type, 100 mM LiCl, 8 hr, absence of methionine, normalized to soluble protein): 42.9 nmol/mg
Ki [3]: 100 mM
